We go through 17 compounds from US10398676B2, “Use of alpha-hydroxy carbonyl compounds as reducing agents” (Morvus Technology Ltd, priority 2005, dated 2019).

A short description of data set [1]: DHA reduction of prodrugs and nitro compounds, HPLC initial rate (Examples 5 and 6). The conditions noted are these: 100 μM compound, 10 mM DHA, 37° C. It is filed as physicochemical. The protocol: The assay mixture contained the compound under test (100 μM) and DHA (10 mM) in a final reaction volume of 1 mL of sodium phosphate buffer (of the required pH). The reaction was started by addition of DHA and the mixture is incubated at 37° C.

Data set [2] deals with Chinese Hamster V79 cells. Kind of data set: Survival of V79 cells, colony forming ability (FIG. 7). The conditions noted are these: 10 or 100 μM E09 with 10 mM DHA, 2 hours, pH 7.5, 37° C. It is filed as cell-based. The protocol: The survival of V79 cells was determined using the following method: • Volumes (1 mL, 2×10^5 cells/mL) of V79 cells in 10 mM phosphate buffer (pH 7.5) containing 140 mM NaCl were incubated at 37° C. and then reagents (as indicated above, at the concentrations stipulated) were added (except for the control experiment). After a 2 hour incubation, the cells were harvested by centrifugation, diluted out serially (4×10-fold) and the cells plated into growth medium and assayed for their colony forming ability after growth for 1 week in a humidified 5% CO2 atmosphere.

Data set [3] can be described thus: DHA reduction of prodrugs and nitro compounds, HPLC initial rate (Examples 5 and 6). The data set is classed as physicochemical. The conditions noted are these: 100 μM compound, 1 mM DHA employed (instead of 10 mM DHA), 37° C.
Data set [4] can be described thus: Reduction of NADP+ by α-hydroxycarbonyl compounds (Example 7). The data set is classed as physicochemical. The conditions noted are these: 1 mM test compound, 200 μM NADP+, pH 10 (1 mM NaHCO3 buffer), over 2 minutes. The protocol:
A 10 μL aliquot of test compound (at a concentration of 100 mM in water) is added to a 200 μM NADP^+ aqueous solution (approximately 990 μL), buffered to pH 10 (1 mM NaHCO3 buffer). The final concentration of the test compound in the assay solution was 1 mM. Reduction of NADP^+ was then monitored by measuring the increase, over the course of 2 minutes, of absorption at 350 nm on a spectrophotometer. Initial rates were recorded as the change in A350 per minute.

The nature of data set [5]: Reduction of tretazicar by α-hydroxycarbonyl compounds, HPLC initial rate (Example 8). It is filed as physicochemical. The conditions noted are these: 10 mM test compound, 100 μM tretazicar, 0.1 M sodium bicarbonate buffer; for Initial Rate of tretazicar reduction, pH 9: pH 9, 37° C.; for Initial Rate of tretazicar reduction, pH 10: pH 10, 37° C. The protocol: The assay was started by addition of 100 μL of 100 mM test compound (compound of formula I) in water to a mixture of tretazicar (100 μM) in 0.1 M sodium bicarbonate buffer, pH 9 or pH 10, to give a final volume of 1 mL. The mixture was incubated at 37° C. and aliquots (10 μL) were taken every 6 min and assayed immediately by HPLC [Partisil 10 SCX (4.2×150 mm) (Whatman, Maidstone, Kent, U.K.] eluted isocratically with 0.13 M sodium phosphate (pH 5) at 1.5 ml/min). The concentration of tretazicar was determined in each sample by reference of the corresponding peak area with an external standard, quantified by absorbance at 325 nm. Initial rates were calculated by curve fitting (FigP, Biosoft, Cambridge, U.K.). Reduction products were identified by retention time relative to an authentic standard.

Marks after values point to notes of the source that are not given here. Bounds are passed on as bounds.

For `Cn1c(/C=C/CO)c(CO)c2c1C(=O)C=C(N1CC1)C2=O` [E09, 3-[5-aziridinyl-4,7-dioxo-3-hydroxymethyl-1-methyl-1H-indol-2-yl]-prop-β-ene-α-ol], in data set [1], the “INITIAL RATE, 0.1 M PO4, pH7.5” value was found to be 0.272 nmoles/min/mL and the “INITIAL RATE, 0.1 M PO4, pH8” value was 0.605 nmoles/min/mL. Besides, the “cytotoxic effect (percentage survival of V79 cells) on addition of DHA” value in data set [2] is reported as “greatly enhanced”.

In the case of `Cc1ncc([N+](=O)[O-])n1CCO` [Metronidazole, 2-methyl-5-nitro-1H-imidazole-1-ethanol], in data set [1], the “INITIAL RATE, 0.1 M PO4, pH7.5” value turned out to be 0.131 nmoles/min/mL; the “INITIAL RATE, 0.1 M PO4, pH8” value is on record as 0.369 nmoles/min/mL; the “Initial Rate, pH 8” value came out at 0.369 nmoles/min/mL; the “Initial Rate, pH 9” value is listed as 0.890 nmoles/min/mL. In addition, in data set [1], the “Initial Rate, pH 10” value was found to be 1.239 nmoles/min/mL and the “Initial Rate, pH 10.6” value was 0.807 nmoles/min/mL.

`CO[C@@]12[C@H](COC(N)=O)C3=C(C(=O)C(C)=C(N)C3=O)N1C[C@@H]1N[C@@H]12` [Mitomycin C]: the “INITIAL RATE, pH7.5 column, (PBS)” value in data set [1] (PBS) was 1.524 (PBS) nmoles/min/mL. Also, the “Initial Rate, pH 7” value in data set [1] (pH 7) is listed as 1.019 nmoles/min/mL. In data set [1], the “Initial Rate, pH 9” value was “Too fast to measure”. For the same compound, in data set [3] (pH8), the “INITIAL RATE, 0.1 M PO4, pH8, 1 mM DHA” value is listed as 0.052^a nmoles/min/mL and the “Initial Rate, pH 8, 1 mM DHA” value was 0.052 nmoles/min/mL. In addition, the “Initial Rate, pH 8.5, 1 mM DHA” value in data set [3] (pH 8.5) was found to be 0.103 nmoles/min/mL.

As for `O=C(CO)[C@H](O)[C@@H](O)CO` [L-Xylulose], the “Rate of NADP+ reduction” value in data set [4] is 0.003 change in A350 per minute. For the same compound, in data set [5], the “Initial Rate of tretazicar reduction, pH 9” value was < 0.01 nmoles/min/mL and the “Initial Rate of tretazicar reduction, pH 10” value turned out to be 0.28 nmoles/min/mL.

Turning to `O=[N+]([O-])c1nccn1CC(O)CN1CC1` (stereo not drawn) [RSU-1069/RB-1645, 1-(1-aziridinyl)-3-(2-nitro-1-imidazolyl)-2-propanol], in data set [1], the “INITIAL RATE, 0.1 M PO4, pH7.5” value is <0.01 nmoles/min/mL and the “INITIAL RATE, 0.1 M PO4, pH8” value came to 2.57 nmoles/min/mL.

For the compound `Cc1cc(Cl)c([N+](=O)[O-])cc1[N+](=O)[O-]` [5-chloro-2,4-dinitrotoluene], in data set [1], the “Initial Rate, pH 8” value is reported as 0.132 nmoles/min/mL; the “Initial Rate, pH 9” value worked out at 0.499 nmoles/min/mL; the “Initial Rate, pH 10” value came out at 0.690 nmoles/min/mL; the “Initial Rate, pH 10.6” value amounted to 1.703 nmoles/min/mL.

Turning to `O=CC(O)CO` (racemic) [D,L-Glyceraldehyde], the “Rate of NADP+ reduction” value in data set [4] is given as 0.015 change in A350 per minute. Further, in data set [5], the “Initial Rate of tretazicar reduction, pH 9” value turned out to be 0.53 nmoles/min/mL and the “Initial Rate of tretazicar reduction, pH 10” value was 0.62 nmoles/min/mL.

`NC(=O)N/N=C/c1ccc([N+](=O)[O-])o1` [Nitrofurazone, 2-[(5-nitro-2-furanyl)methylene]hydrazinecarboxamide]: in data set [1], the “INITIAL RATE, 0.1 M PO4, pH7.5” value is on record as 0.177 nmoles/min/mL; the “INITIAL RATE, 0.1 M PO4, pH8” value worked out at 0.203 nmoles/min/mL; the “Initial Rate, pH 7.5” value came to 0.177 nmoles/min/mL; the “Initial Rate, pH 8” value is listed as 0.203 nmoles/min/mL. In data set [1], the “Initial Rate, pH 8.5” value came to 0.260 nmoles/min/mL; the “Initial Rate, pH 9” value is given as 2.390 nmoles/min/mL; the “Initial Rate, pH 10” value worked out at 3.789 nmoles/min/mL.

For “Hydroxyacetone [Hydroxyacetone (acetol)]”, the “Rate of NADP+ reduction” value in data set [4] was 0.003 change in A350 per minute.

As for `O=C(CO)CO` [Dihydroxyacetone (dimer), 1,3-dihydroxy-2-propanone], the “Rate of NADP+ reduction” value in data set [4] is given as 0.063 change in A350 per minute. For the same compound, in data set [5], the “Initial Rate of tretazicar reduction, pH 9” value is reported as 0.92 nmoles/min/mL and the “Initial Rate of tretazicar reduction, pH 10” value stood at 0.69 nmoles/min/mL.

For the compound Glycolaldehyde [Glycolaldehyde dimer], the “Rate of NADP+ reduction” value in data set [4] is 0.029 change in A350 per minute. In data set [5], the “Initial Rate of tretazicar reduction, pH 9” value is 0.18 nmoles/min/mL and the “Initial Rate of tretazicar reduction, pH 10” value worked out at 0.14 nmoles/min/mL.

For the compound `O=CC(O)C(O)CO` (stereo not drawn) [D(−)-Erthrose], in data set [4], the “Rate of NADP+ reduction” value is on record as 0.004 change in A350 per minute. Besides, in data set [5], the “Initial Rate of tretazicar reduction, pH 9” value is given as < 0.01 nmoles/min/mL and the “Initial Rate of tretazicar reduction, pH 10” value stood at 0.28 nmoles/min/mL.

Take `O=C(O)c1cc([N+](=O)[O-])c(Cl)c([N+](=O)[O-])c1` [4-chloro-3,5-dinitrobenzoic acid]: in data set [1], the “Initial Rate, pH 8” value is listed as 0.195 nmoles/min/mL; the “Initial Rate, pH 9” value turned out to be 1.293 nmoles/min/mL; the “Initial Rate, pH 10” value turned out to be 1.727 nmoles/min/mL; the “Initial Rate, pH 10.6” value was determined as 2.442 nmoles/min/mL.

For the compound `O=[N+]([O-])c1ccc(CO)cc1` [4-nitrobenzyl alcohol], in data set [1], the “Initial Rate, pH 8” value was < 0.01 nmoles/min/mL; the “Initial Rate, pH 9” value is listed as < 0.01 nmoles/min/mL; the “Initial Rate, pH 10” value turned out to be 0.105 nmoles/min/mL; the “Initial Rate, pH 10.6” value is reported as 0.087 nmoles/min/mL.

With `CC(=O)C(C)O` (stereo not drawn) [3-hydroxy-2-butanone], in data set [5], the “Initial Rate of tretazicar reduction, pH 9” value came out at 0.034 nmoles/min/mL and the “Initial Rate of tretazicar reduction, pH 10” value is 0.184 nmoles/min/mL.

Turning to `Nc1n[n+]([O-])c2ccccc2[n+]1[O-]` [Tirapazamine, 3-amino-1,2,4-benzotriazine-1,4-dioxide], in data set [1], the “INITIAL RATE, 0.1 M PO4, pH7.5” value was 0.523 nmoles/min/mL; the “INITIAL RATE, 0.1 M PO4, pH8” value stood at 0.512 nmoles/min/mL; the “Initial Rate, pH 7.5” value was found to be 0.523 nmoles/min/mL; the “Initial Rate, pH 8” value is 0.512 nmoles/min/mL. For the same compound, in data set [1], the “Initial Rate, pH 8.5” value is 0.639 nmoles/min/mL; the “Initial Rate, pH 9” value is given as 3.503 nmoles/min/mL; the “Initial Rate, pH 10” value was 4.209 nmoles/min/mL.

On to `COCC(O)Cn1ccnc1[N+](=O)[O-]` (stereo not drawn) [Misonidazole], for which, in data set [1], the “INITIAL RATE, 0.1 M PO4, pH7.5” value was 0.221 nmoles/min/mL; the “INITIAL RATE, 0.1 M PO4, pH8” value is reported as 1.922 nmoles/min/mL; the “Initial Rate, pH 8” value is recorded as 1.922 nmoles/min/mL; the “Initial Rate, pH 9” value amounted to 1.851 nmoles/min/mL. Besides, the “Initial Rate, pH 10” value in data set [1] worked out at 3.180 nmoles/min/mL.
